# Read-outs that look alike come from different tables or passages of the source.
# Columns and labels:
# [1] = tested on: M14 (amelanotic melanoma) cells; test: antiproliferation assay (72 h, CELLTITER 96), M14; format: cell-based, human
# How it was run: (§1)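 Human M14 melanoma and NCI-H460 lung carcinoma cells in RPMI-1640/10% FBS, seeded at 5×10^2–5×10^4 cells/well and adhered overnight, then exposed to seven compound concentrations for 72 h at 37 °C. Viable cells read by CellTiter 96 AQueous (MTS); IC50 = concentration giving 50% of maximal growth inhibition.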
# [2] = tested on: NCI-H460 (large cell lung carcinoma) cells; test: antiproliferation assay (72 h, CELLTITER 96), NCI-H460; format: cell-based, human; details: read-out: NCI-H460 IC50
# How it was run: as §1
# [3] = Homo sapiens, NCI-H460, Table 3
# [4] = Homo sapiens, NCI-H460, Table 7
# [5] = Homo sapiens, NCI-H460, Table 5
# [6] = Homo sapiens, NCI-H460, Table 4
compound,measurement,setting,value
"C=CC[C@H]1C[C@]2([C@@H](C)Cc3cc(OC)c(OC)cc3F)OCOC2=CC1=O [Compound 15, (6S,7aR)-6-allyl-7a-((S)-1-(2-fluoro-4,5-dimethoxyphenyl)propan-2-yl)-7,7a-dihydrobenzo[d][1,3]dioxol-5(6H)-one]",IC50,"[1]; Homo sapiens, Table 3",14 nM
same,IC50,[2]; [3],120 nM
"C=C[C@H](C)[C@H]1C[C@]2([C@@H](C)Cc3ccc(OC)cc3F)OCOC2=CC1=O [Compound 110, (6R,7aR)-6-((S)-but-3-en-2-yl)-7a-((S)-1-(2-fluoro-4-methoxyphenyl)propan-2-yl)-7,7a-dihydrobenzo[d][1,3]dioxol-5(6H)-one]",IC50,"[1]; Homo sapiens, Table 7",290 nM
same,IC50,[2]; [4],130 nM
"C=CC[C@H]1C[C@]2([C@@H](C)Cc3cc(C(=O)N(C)C)c(OC)cc3F)OCOC2=CC1=O [Compound 94, 5-((S)-2-((3aR,5S)-5-allyl-6-oxo-3a,4,5,6-tetrahydrobenzo[d][1,3]dioxol-3a-yl)propyl)-4-fluoro-2-methoxy-N,N-dimethylbenzamide]",IC50,"[1]; Homo sapiens, Table 3",> 20000 nM
same,IC50,[2]; [3],> 20000 nM
"C=CC[C@H]1C[C@]2([C@@H](C)Cc3ccc(O)cc3)OCOC2=CC1=O [Compound 99, (6S,7aR)-6-allyl-7a-((S)-1-(4-hydroxyphenyl)propan-2-yl)-7,7a-dihydrobenzo[d][1,3]dioxol-5(6H)-one]",IC50,"[1]; Homo sapiens, Table 5",> 20000 nM
same,IC50,[2]; [5],> 20000 nM
"C=CC[C@H]1C[C@]2(C(C)Cc3ccc(OC)c(OC(C)=O)c3)OCOC2=CC1=O (stereo partly drawn) [Compound 33, 5-(2-((3aR,5S)-5-allyl-6-oxo-3a,4,5,6-tetrahydrobenzo[d][1,3]dioxol-3a-yl)propyl)-2-methoxyphenyl acetate]",IC50,"[1]; Homo sapiens, Table 4",16 nM
same,IC50,[2]; [6],110 nM
CC[C@H]1C[C@]2([C@H](C)Cc3cc(F)c(OC)cc3F)OCOC2=CC1=O [Compound 58],IC50,"[1]; Homo sapiens, Table 7",290 nM
same,IC50,[2]; [4],440 nM
"C=C(F)C[C@H]1C[C@]2([C@@H](C)Cc3cc(F)c(OC)cc3F)OCOC2=CC1=O [Compound 64, (6R,7aR)-7a-((S)-1-(2,5-difluoro-4-methoxyphenyl)propan-2-yl)-6-(2-fluoroallyl)-7,7a-dihydrobenzo[d][1,3]dioxol-5(6H)-one]",IC50,"[1]; Homo sapiens, Table 7",140 nM
same,IC50,[2]; [4],220 nM
"C=CC[C@H]1C[C@]2([C@@H](C)Cc3ccc(OC)c(C#N)c3)OCOC2=CC1=O [Compound 31, 5-((S)-2-((3aR,5S)-5-allyl-6-oxo-3a,4,5,6-tetrahydrobenzo[d][1,3]dioxol-3a-yl)propyl)-2-methoxybenzonitrile]",IC50,"[1]; Homo sapiens, Table 4",180 nM
same,IC50,[2]; [6],340 nM
"C=CC[C@H]1C[C@]2([C@@H](C)Cc3ccc(OC)c(Cl)c3)OCOC2=CC1=O [Compound 38, (6S,7aR)-6-allyl-7a-((S)-1-(3-chloro-4-methoxyphenyl)propan-2-yl)-7,7a-dihydrobenzo[d][1,3]dioxol-5(6H)-one]",IC50,"[1]; Homo sapiens, Table 4",240 nM
same,IC50,[2]; [6],640 nM
"COCC[C@H]1C[C@]2([C@@H](C)Cc3cc(O)c(OC)cc3F)OCOC2=CC1=O [Compound 78, (6S,7aR)-7a-((S)-1-(2-fluoro-5-hydroxy-4-methoxyphenyl)propan-2-yl)-6-(2-methoxyethyl)-7,7a-dihydrobenzo[d][1,3]dioxol-5(6H)-one]",IC50,"[1]; Homo sapiens, Table 7",190 nM
same,IC50,[2]; [4],270 nM
"C=CC[C@H]1C[C@]2([C@H](C)Cc3ccc(OC)c(Cl)c3)OCOC2=CC1=O [Compound 39, (6S,7aR)-6-allyl-7a-((R)-1-(3-chloro-4-methoxyphenyl)propan-2-yl)-7,7a-dihydrobenzo[d][1,3]dioxol-5(6H)-one]",IC50,"[1]; Homo sapiens, Table 4",130 nM
same,IC50,[2]; [6],420 nM
"C=CC[C@H]1C[C@]2([C@@H](C)Cc3ccc(OC)c(OC(=O)N(C)C)c3)OCOC2=CC1=O [Compound 73, 5-((S)-2-((3aR,5S)-5-allyl-6-oxo-3a,4,5,6-tetrahydrobenzo[d][1,3]dioxol-3a-yl)propyl)-2-methoxyphenyl dimethylcarbamate]",IC50,"[1]; Homo sapiens, Table 4",> 20000 nM
same,IC50,[2]; [6],> 20000 nM
"C=CC[C@H]1C[C@]2(C(C)Cc3ccc(OCC)cc3)OCOC2=CC1=O (stereo partly drawn) [Compound 40, (6S,7aR)-6-allyl-7a-(1-(4-ethoxyphenyl)propan-2-yl)-7,7a-dihydrobenzo[d][1,3]dioxol-5(6H)-one]",IC50,"[1]; Homo sapiens, Table 5",650 nM
same,IC50,[2]; [5],2000 nM
"C=CC[C@H]1C[C@]2([C@@H](C)Cc3cc(F)c(OC)cc3F)OCOC2=CC1=O [Compound 7, (6S,7aR)-6-allyl-7a-((S)-1-(2,5-difluoro-4-methoxyphenyl)propan-2-yl)-7,7a-dihydrobenzo[d][1,3]dioxol-5(6H)-one]",IC50,"[1]; Homo sapiens, Table 3",23 nM
same,IC50,[2]; [3],59 nM
"C=CC[C@H]1C[C@]2([C@H](C)Cc3c(F)cc(OC)cc3F)OCOC2=CC1=O [Compound 23, (6S,7aR)-6-allyl-7a-((R)-1-(2,6-difluoro-4-methoxyphenyl)propan-2-yl)-7,7a-dihydrobenzo[d][1,3]dioxol-5(6H)-one]",IC50,"[1]; Homo sapiens, Table 3",270 nM
same,IC50,[2]; [3],720 nM
"C=CC[C@H]1C[C@]2(C(C)Cc3cc(C(=O)O)c(OC)cc3F)OCOC2=CC1=O (stereo partly drawn) [Compound 92, 5-(2-((3aR,5S)-5-allyl-6-oxo-3a,4,5,6-tetrahydrobenzo[d][1,3]dioxol-3a-yl)propyl)-4-fluoro-2-methoxybenzoic acid]",IC50,"[1]; Homo sapiens, Table 3",> 20000 nM
same,IC50,[2]; [3],> 20000 nM
"C=CC[C@H]1C[C@]2(C(C)Cc3ccc(OC)c(N)c3)OCOC2=CC1=O (stereo partly drawn) [Compound 34, (6S,7aR)-6-allyl-7a-(1-(3-amino-4-methoxyphenyl)propan-2-yl)-7,7a-dihydrobenzo[d][1,3]dioxol-5(6H)-one]",IC50,"[1]; Homo sapiens, Table 4",49 nM
same,IC50,[2]; [6],180 nM
"C=CC[C@H]1C[C@]2([C@@H](C)Cc3ccc(OC)c(NC(C)=O)c3)OCOC2=CC1=O [Compound 35, N-(5-((S)-2-((3aR,5S)-5-allyl-6-oxo-3a,4,5,6-tetrahydrobenzo[d][1,3]dioxol-3a-yl)propyl)-2-methoxyphenyl)acetamide]",IC50,"[1]; Homo sapiens, Table 4",85 nM
same,IC50,[2]; [6],310 nM
"C=CC[C@H]1C[C@]2([C@H](C)Cc3cc(F)c(N(C)C)cc3F)OCOC2=CC1=O [Compound 47, (6S,7aR)-6-allyl-7a-((R)-1-(4-(dimethylamino)-2,5-difluorophenyl)propan-2-yl)-7,7a-dihydrobenzo[d][1,3]dioxol-5(6H)-one]",IC50,"[1]; Homo sapiens, Table 5",75 nM
same,IC50,[2]; [5],330 nM
"C=CC[C@H]1C[C@]2([C@@H](CC)Cc3ccc(OC)c(OC)c3)OCOC2=CC1=O [Compound 87, (6S,7aR)-6-allyl-7a-(1-(3,4-dimethoxyphenyl)butan-2-yl)-7,7a-dihydrobenzo[d][1,3]dioxol-5(6H)-one]",IC50,"[1]; Homo sapiens, Table 8",2600 nM
same,IC50,"[2]; Homo sapiens, NCI-H460, Table 8",11000 nM
"C=CC[C@H]1C[C@]2([C@@H](C)Cc3ccc(NC(C)=O)c(F)c3)OCOC2=CC1=O [Compound 102, N-(4-((S)-2-((3aR,55)-5-allyl-6-oxo-3a,4,5,6-tetrahydrobenzo[d][1,3]dioxol-3a-yl)propyl)-2-fluorophenyl)acetamide]",IC50,[1]; Table 5,> 20000 nM
same,IC50,[2]; Table 5,> 20000 nM
"C=CC[C@H]1C[C@]2([C@H](C)Cc3cc(F)c(NC)cc3F)OCOC2=CC1=O (relative stereo) [Compound 44, 6-allyl-7a-(1-(2,5-difluoro-4-(methylamino)phenyl)propan-2-yl)-7,7a-dihydrobenzo[d][1,3]dioxol-5(6H)-one]",IC50,"[1]; Homo sapiens, Table 5",16 nM
same,IC50,[2]; [5],68 nM
"COc1cc(F)c(CC(C)[C@]23C[C@H](C)C(=O)C=C2OCO3)cc1F (stereo partly drawn) [Compound 56, (6S,7aR)-7a-(1-(2,5-difluoro-4-methoxyphenyl)propan-2-yl)-6-methyl-7,7a-dihydrobenzo[d][1,3]dioxol-5(6H)-one]",IC50,"[1]; Homo sapiens, Table 7",140 nM
same,IC50,[2]; [4],430 nM

# — patent US9562031B1, “Phenethyldihydrobenzodioxolones and methods of use” (Sequoia Sciences, Inc., priority 2015, dated 2017)
